Data from PubChem BioAssay (NCI).
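Exposure lasted 48 hours, with cells grown in 96-well plates and compounds tested at five concentrations. TGI: concentration producing complete growth inhibition.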

Columns and labels:
Test in all cases: inhibition of tumour cell growth, NCI panel, 48 h
[1] = test system: 786-0 renal
[2] = test system: A498 renal
[3] = test system: A549 NSCLC
[4] = test system: ACHN renal
[5] = test system: BT-549 breast
[6] = test system: CAKI-1 renal
[7] = test system: CCRF-CEM leukemia
[8] = test system: COLO 205 colon
[9] = test system: DU-145 prostate
[10] = test system: EKVX NSCLC
[11] = test system: HCC-2998 colon
[12] = test system: HCT-116 colon
[13] = test system: HCT-15 colon
[14] = test system: HL-60(TB) leukemia
[15] = test system: HOP-62 NSCLC
[16] = test system: HOP-92 NSCLC
[17] = test system: HS 578T breast
[18] = test system: HT29 colon
[19] = test system: IGROV1 ovarian
[20] = test system: K-562 leukemia
[21] = test system: KM12 colon
[22] = test system: LOX IMVI melanoma
[23] = test system: M14 melanoma
[24] = test system: MALME-3M melanoma
[25] = test system: MCF7 breast
[26] = test system: MDA-MB-231 breast
[27] = test system: MDA-MB-435
[28] = test system: MDA-N
[29] = test system: MOLT-4 leukemia
[30] = test system: NCI-H226 lung
[31] = test system: NCI-H23 lung
[32] = test system: NCI-H522 lung
[33] = test system: NCI/ADR-RES ovarian
[34] = test system: OVCAR-3 ovarian
[35] = test system: OVCAR-4 ovarian
[36] = test system: OVCAR-5 ovarian
[37] = test system: OVCAR-8 ovarian
[38] = test system: PC-3 prostate
[39] = test system: RPMI-8226 leukemia
[40] = test system: RXF 393 renal
[41] = test system: SF-268 CNS
[42] = test system: SF-295 CNS
[43] = test system: SF-539 CNS
[44] = test system: SK-MEL-2 melanoma
[45] = test system: SK-MEL-5 melanoma
[46] = test system: SK-OV-3 ovarian
[47] = test system: SN12C renal
[48] = test system: SNB-19 CNS
[49] = test system: SNB-75 CNS
[50] = test system: SR leukemia
[51] = test system: SW-620 colon
[52] = test system: T-47D breast
[53] = test system: TK-10 renal
[54] = test system: U251 CNS
[55] = test system: UACC-257 melanoma
[56] = test system: UACC-62 melanoma
[57] = test system: UO-31 renal
[58] = test system: NCI-H460 lung
[59] = test system: SK-MEL-28 melanoma

## CCC(C#N)N(Cc1cccc(CN(C(C)=O)C(C#N)CC)c1)C(C)=O (configuration not stated)
[1]
  TGI: > 100 µM
[2]
  TGI: > 100 µM
[3]
  TGI: > 100 µM
[4]
  TGI: > 100 µM
[5]
  TGI: > 100 µM
[6]
  TGI: > 100 µM
[7]
  TGI: > 100 µM
[8]
  TGI: > 100 µM
[9]
  TGI: > 100 µM
[10]
  TGI: > 100 µM
[11]
  TGI: > 100 µM
[12]
  TGI: > 100 µM
[13]
  TGI: > 100 µM
[14]
  TGI: > 100 µM
[15]
  TGI: > 100 µM
[16]
  TGI: > 100 µM
[17]
  TGI: > 100 µM
[18]
  TGI: > 100 µM
[19]
  TGI: > 100 µM
[20]
  TGI: > 100 µM
[21]
  TGI: > 100 µM
[22]
  TGI: > 100 µM
[23]
  TGI: > 100 µM
[24]
  TGI: > 100 µM
[25]
  TGI: > 100 µM
[26]
  TGI: > 100 µM
[27]
  TGI: > 100 µM
[28]
  TGI: > 100 µM
[29]
  TGI: > 100 µM
[30]
  TGI: > 100 µM
[31]
  TGI: > 100 µM
[32]
  TGI: > 100 µM
[33]
  TGI: > 100 µM
[34]
  TGI: > 100 µM
[35]
  TGI: > 100 µM
[36]
  TGI: > 100 µM
[37]
  TGI: > 100 µM
[38]
  TGI: > 100 µM
[39]
  TGI: > 100 µM
[40]
  TGI: > 100 µM
[41]
  TGI: > 100 µM
[42]
  TGI: > 100 µM
[43]
  TGI: > 100 µM
[44]
  TGI: > 100 µM
[45]
  TGI: > 100 µM
[46]
  TGI: > 100 µM
[47]
  TGI: > 100 µM
[48]
  TGI: > 100 µM
[49]
  TGI: > 100 µM
[50]
  TGI: > 100 µM
[51]
  TGI: > 100 µM
[52]
  TGI: > 100 µM
[53]
  TGI: > 100 µM
[54]
  TGI: > 100 µM
[55]
  TGI: > 100 µM
[56]
  TGI: > 100 µM
[57]
  TGI: > 100 µM

## CC1CCN(c2nnc(Cl)cc2C(=O)c2ccccc2)CC1
[1]
  TGI: > 100 µM
[2]
  TGI: > 100 µM
[3]
  TGI: > 100 µM
[4]
  TGI: > 100 µM
[5]
  TGI: > 100 µM
[6]
  TGI: 34 µM
[7]
  TGI: 45.9 µM
[8]
  TGI: 46.9 µM
[9]
  TGI: > 100 µM
[10]
  TGI: > 100 µM
[11]
  TGI: 96.6 µM
[12]
  TGI: > 100 µM
[13]
  TGI: > 100 µM
[14]
  TGI: > 100 µM
[15]
  TGI: > 100 µM
[16]
  TGI: 55.5 µM
[17]
  TGI: 88.7 µM
[18]
  TGI: 39.5 µM
[19]
  TGI: > 100 µM
[20]
  TGI: > 100 µM
[21]
  TGI: 52.6 µM
[22]
  TGI: > 100 µM
[23]
  TGI: 95.5 µM
[25]
  TGI: 36.9 µM
[26]
  TGI: 96.2 µM
[27]
  TGI: 56.9 µM
[28]
  TGI: 53.2 µM
[29]
  TGI: 55 µM
[31]
  TGI: 82.4 µM
[58]
  TGI: > 100 µM
[32]
  TGI: 77.7 µM
[33]
  TGI: > 100 µM
[34]
  TGI: 71 µM
[35]
  TGI: > 100 µM
[36]
  TGI: > 100 µM
[37]
  TGI: > 100 µM
[38]
  TGI: > 100 µM
[40]
  TGI: 53.9 µM
[41]
  TGI: 3.04 µM
[42]
  TGI: 83.9 µM
[43]
  TGI: 77.4 µM
[44]
  TGI: 40.8 µM
[59]
  TGI: > 100 µM
[45]
  TGI: 31.1 µM
[47]
  TGI: > 100 µM
[48]
  TGI: 92.7 µM
[49]
  TGI: 70 µM
[50]
  TGI: 45.6 µM
[51]
  TGI: 59.6 µM
[52]
  TGI: > 100 µM
[53]
  TGI: > 100 µM
[54]
  TGI: > 100 µM
[55]
  TGI: 63.2 µM
[56]
  TGI: > 100 µM
[57]
  TGI: > 100 µM
